Test results taken from patent US20240216410A1, “METHODS AND COMPOSITIONS FOR TREATING CANCER THERAPY-INDUCED NEUTROPENIC FEVER AND/OR GVHD” (BOARD OF REGENTS, THE UNIVERSITY OF TEXAS SYSTEM, priority 2021, published 2024).

Columns and labels:
[1] = Meropenem concentrations in cecal contents after subcutaneous injection (LC-MS); assay type: in vivo, mice; details: 4, 8, 24, 48 and 96 hours
Method: (§1) To further explore a potential causal relationship between meropenem and intestinal GVHD, the effects of meropenem on GVHD in a mouse model of allo-HSCT were examined. A method of administering meropenem to mice was first developed that would better mimic the effects of meropenem on the intestinal microbiome of patients, which is typically given every 8 hours intravenously. Previously, antibiotics were administered subcutaneously to mice (25), and meropenem concentrations were quantified in the cecal lumen of mice 4, 8, 24, 48 and 96 hours after subcutaneous injection. […] Next, drinking water was evaluated as a means of continuously administering meropenem to mice, using bacterial density quantified by 16S ribosomal RNA (16S rRNA) gene quantitative PCR (qPCR) to gauge reductions of the intestinal microbiota.
Pharmacokinetics of meropenem by Triple Quadruple liquid chromatography-mass spectrometry (LC-MS). C57BL/6 mice were treated with 10 mg of meropenem by subcutaneously injection. Cecal contents were collected prior to, 4, 8, 24, 48, and 96 hours after meropenem injection. To determine the relative abundance of meropenem in mouse cecum samples, extracts were prepared and analyzed with a THERMO […]™ TSQ […]™ triple quadruple mass spectrometer coupled with a DIONEX™ ULTIMATE™ 3000 HPLC system. […]

[2] = tested on: neutrophils and dendritic cells in the colon; assay: Murine GVHD model: colonic infiltration by neutrophils and dendritic cells; assay type: in vivo; details: meropenem-treated mice with GVHD
Description: Altogether, these findings indicate that, in some cases, meropenem treatment leads to compromise of the colonic mucus layer, increased bacterial translocation and an aggravated inflammatory response.
Histological and immunohistochemistry analysis. […] Pathology scores were quantified by a blinded pathologist. […] Sections were imaged using an APERIO® AT2.
Lamina propria hematopoietic cell dissociation. Murine colons were isolated, dissected longitudinally and then on a shaker in 2% fetal bovine serum in PBS with 1 mM DL-dithiothreitol (Bioworld) at 37 °C for 20 min and subsequently incubated with 1.3 mM EDTA at 37° C. for 40 min. They were rinsed twice and digested with 0.3 mg/ml of type IV collagenase (C5138, SIGMA-ALDRICH®) at 37 °C for 45 min, homogenized, filtered, and washed.
Flow cytometric analysis. Monoclonal antibodies conjugated with fluorescein isothiocynate, phycoerythrin, phycoerythrin-Cy7, peridinin-chlorophyll protein complexes, allophycocyanin, or allophycocyanin-Cy7 were purchased from Tonbo Biosciences (San Diego, CA), EBIOSCIENCE™ (San Diego, CA), or BIOLEGEND® (San Diego, CA.). […] In flow cytometric analysis, at least 100,000 live samples were analyzed using BD LSRFORTESSA™ X-20 (BD Biosciences) and FlowJo software (Trec Star, OR). […]

[3] = tested on: Bacteroides thetaiotaomicron (ATCC 29148); assay: MIC of meropenem by MIC test strips; assay type: cell-based; details: ATCC29148, human-derived BT
Method: (§2) The minimum inhibitory concentration (MIC) of meropenem against murine BT was quantified using MIC test strips (Table 4).
(§3) Culturing of bacteria. Mouse-derived BT (MDA-JAX BT001), Enterococcus faecalis (MDA-JAX EF001) and Clostridium disporicum (MDA-JAX CD001), Clostridium saudiense (MDA-JAX CS001), and Lachnospiraceae unclassified (MDA-JAX LS001) were isolated and cultured from mouse stool samples suspended in 1 ml of chilled 20% anaerobic glycerol in a Whitley anaerobic chamber (10% H2, 5% CO2 and 85% N2). Human-derived BT (ATCC 29148) was purchased from ATCC. Bacterial number was quantified using a Nexcelom Cellometer cell counter with SYTO™ BC dye and propidium iodide. For measuring MICs against meropenem, bacteria were cultured on BYE plates including 5% sterilized rumen fluid (Fisher Scientific) with MIC test strips (LIOFILCHEM™ MTS™ Meropenem [MRP] 0.016-256 μg/mL, THERMO FISHER […]™)). Bacterial growth experiments were in liquid media were performed in a novel bacterial media, BYEM10, composed of a hybrid of BHI and M10 supplemented with yeast extract (Table 5).

[4] = tested on: Lachnospiraceae unclassified (MDA-JAX LS001); assay: MIC of meropenem by MIC test strips; assay type: cell-based; details: mouse-derived
Method: as §2, §3

intestinal microbiota = assay: Fecal bacterial density by 16S rRNA gene qPCR in normal mice given meropenem in drinking water; assay type: in vivo; details: 0.625 g/L meropenem in drinking water
Method: as §1
Quantification of fecal bacterial density. Genomic DNA was isolated from stool as described above. qPCR was performed as previously described (66). In brief, 16S rRNA gene sequences were amplified from total fecal DNA using the primers 926F (5′-[…]-3′, where K is a G or a T; SEQ ID NO:2) and 1062R (5′-[…]-3′, where R is an A or a G; SEQ ID NO:3). […] To determined bacterial density, a plasmid with a 16S rRNA gene of a murine Blautia isolate was generated in the pCR4 backbone and used as a standard.

Structure (SMILES): C[C@@H](O)[C@H]1C(=O)N2C(C(=O)O)=C(S[C@@H]3CN[C@H](C(=O)N(C)C)C3)[C@H](C)[C@H]12 [meropenem]
- meropenem concentrations in the cecum [1]: increase in meropenem concentrations in the cecum at 4 hours after injection, which rapidly declined thereafter
- colonic tissue infiltration by neutrophils and dendritic cells [2]: marked colonic tissue infiltration by neutrophils and dendritic cells
- MIC [3]: 6 µg/mL
- MIC [4]: 0.38 µg/mL
- reduction in fecal bacterial density (intestinal microbiota): substantial one-log reduction in fecal bacterial density
